Data published in US20260256792A1, “TREATMENT OF CHRONIC SPONTANEOUS URTICARIA BY ADMINISTERING (R)-2-[3-[4-AMINO-3-(2-FLUORO-4-PHENOXY-PHENYL)PYRAZOLO[3,4-D]PYRIMIDIN-1-YL]PIPERIDINE-1-CARBONYL]-4-METHYL-4-[4-(OXETAN-3-YL)PIPERAZIN-1-YL]PENT-2-ENENITRILE” (priority 2023, published 2026).

Test system: angioedema in CSU patients
Assay: Phase 2 CSU study: angioedema activity score over 7 days (AAS7)
Format: in vivo, human
Conditions: 400 mg BID; for AAS7 % Change difference for rilzabrutinib vs. placebo LS Mean (95% CI) / AAS7 % Change from baseline LS Mean (SE) / AAS7 Change difference for rilzabrutinib vs. placebo LS Mean (95% CI) / AAS7 Change from baseline LS Mean (SE) / AAS7 Post-baseline Mean (SD) / AAS7 = 0, Non-responder n (%) / AAS7 = 0, OR (95% CI) for rilzabrutinib vs. placebo / AAS7 = 0, RRD (%) for rilzabrutinib vs. placebo (95% CI) / Participants with AAS7 = 0, Responder n (%): angioedema at baseline; for Non-responder n (%), AAS7 = 0 / RRD (%) for rilzabrutinib vs. placebo (95% CI), AAS7 = 0 / Responder n (%), AAS7 = 0 / OR (95% CI) for rilzabrutinib vs. placebo, AAS7 = 0: outlier removed
Description: The study comprises a 12 week, randomized, double-blind, placebo-controlled, multi-center, dose-ranging efficacy and safety phase, followed by a 40 week open label extension (OLE) phase (see FIG. 1). The study consists of three phases and an optional OLE phase. […] The weekly angioedema activity score (AAS7) was proposed as a tertiary endpoint. […] Patients were to complete the AAS using the e-diary. The e-diary was to be used once daily on the same time of each day recording of participant's answers to the angioedema activity score over 7 days (AAS7) questionnaire.

## CC(C)(C=C(C#N)C(=O)N1CCC[C@@H](n2nc(-c3ccc(Oc4ccccc4)cc3F)c3c(N)ncnc32)C1)N1CCN(C2COC2)CC1 [rilzabrutinib, (R)-2-[3-[4-amino-3-(2-fluoro-4-phenoxy-phenyl)pyrazolo[3,4-d]pyrimidin-1-yl]piperidine-1-carbonyl]-4-methyl-4-[4-(oxetan-3-yl)piperazin-1-yl]pent-2-enenitrile]
Week 1, ITT
  AAS7 % Change difference for rilzabrutinib vs. placebo LS Mean (95% CI): −40.37 (−70.92, −9.83) %
  AAS7 % Change from baseline LS Mean (SE): −60.34 (9.85) %
  AAS7 Change difference for rilzabrutinib vs. placebo LS Mean (95% CI): −9.84 (−22.84, 3.16)
  AAS7 Change from baseline LS Mean (SE): −24.34 (4.19)
  AAS7 Post-baseline Mean (SD): 23.35 (30.86)
Week 1, omalizumab-naïve
  Non-responder n (%), AAS7 = 0: 16 (45.7) n (%)
  RRD (%) for rilzabrutinib vs. placebo (95% CI), AAS7 = 0: 23.4 %
  Responder n (%), AAS7 = 0: 19 (54.3) n (%)
  AAS7 % Change difference for rilzabrutinib vs. placebo LS Mean (95% CI): −42.17 (−75.41, −8.93) %
  AAS7 = 0, Non-responder n (%): 15 (57.7) n (%)
  AAS7 = 0, OR (95% CI) for rilzabrutinib vs. placebo: 20.850
  AAS7 = 0, RRD (%) for rilzabrutinib vs. placebo (95% CI): 35.1 %
  AAS7 Change difference for rilzabrutinib vs. placebo LS Mean (95% CI): −9.69 (−23.74, 4.37)
  AAS7 Change from baseline LS Mean (SE): −23.46 (4.42)
  AAS7 Post-baseline Mean (SD): 25.15 (31.33)
  Participants with AAS7 = 0, Responder n (%): 11 (42.3) n (%)
Week 2, ITT
  AAS7 % Change difference for rilzabrutinib vs. placebo LS Mean (95% CI): −8.15 (−40.12, 23.82) %
  AAS7 % Change from baseline LS Mean (SE): −49.52 (12.60) %
  AAS7 Change difference for rilzabrutinib vs. placebo LS Mean (95% CI): −5.96 (−17.22, 5.30)
  AAS7 Change from baseline LS Mean (SE): −26.86 (4.43)
  AAS7 Post-baseline Mean (SD): 22.75 (28.74)
Week 2, omalizumab-naïve
  Non-responder n (%), AAS7 = 0: 18 (51.4) n (%)
  OR (95% CI) for rilzabrutinib vs. placebo, AAS7 = 0: 1.366
  RRD (%) for rilzabrutinib vs. placebo (95% CI), AAS7 = 0: 8.2 %
  Responder n (%), AAS7 = 0: 17 (48.6) n (%)
  AAS7 % Change difference for rilzabrutinib vs. placebo LS Mean (95% CI): −9.47 (−44.02, 25.08) %
  AAS7 % Change from baseline LS Mean (SE): −46.69 (13.31) %
  AAS7 = 0, Non-responder n (%): 17 (65.4) n (%)
  AAS7 = 0, OR (95% CI) for rilzabrutinib vs. placebo: 2.012
  AAS7 = 0, RRD (%) for rilzabrutinib vs. placebo (95% CI): 14.6 %
  AAS7 Post-baseline Mean (SD): 24.57 (29.12)
  Participants with AAS7 = 0, Responder n (%): 9 (34.6) n (%)
Week 3, ITT
  AAS7 % Change difference for rilzabrutinib vs. placebo LS Mean (95% CI): −7.33 (−47.50, 32.83) %
  AAS7 % Change from baseline LS Mean (SE): −55.85 (15.71) %
  AAS7 Change difference for rilzabrutinib vs. placebo LS Mean (95% CI): −11.42 (−22.95, 0.12)
  AAS7 Change from baseline LS Mean (SE): −35.57 (4.51)
  AAS7 Post-baseline Mean (SD): 14.81 (20.54)
Week 3, omalizumab-naïve
  Non-responder n (%), AAS7 = 0: 15 (42.9) n (%)
  OR (95% CI) for rilzabrutinib vs. placebo, AAS7 = 0: 2.357
  RRD (%) for rilzabrutinib vs. placebo (95% CI), AAS7 = 0: 21.6 %
  Responder n (%), AAS7 = 0: 20 (57.1) n (%)
  AAS7 % Change difference for rilzabrutinib vs. placebo LS Mean (95% CI): −5.01 (−48.85, 38.83) %
  AAS7 % Change from baseline LS Mean (SE): −52.68 (16.72) %
  AAS7 = 0, Non-responder n (%): 15 (57.7) n (%)
  AAS7 = 0, OR (95% CI) for rilzabrutinib vs. placebo: 2.703
  AAS7 = 0, RRD (%) for rilzabrutinib vs. placebo (95% CI): 20.8 %
  AAS7 Post-baseline Mean (SD): 15.95 (20.90)
  Participants with AAS7 = 0, Responder n (%): 11 (42.3) n (%)
Week 4, ITT
  AAS7 % Change from baseline LS Mean (SE): −60.60 (13.93) %
  AAS7 Change difference for rilzabrutinib vs. placebo LS Mean (95% CI): −12.73 (−23.88, −1.58)
  AAS7 Change from baseline LS Mean (SE): −35.34 (4.34)
  AAS7 Post-baseline Mean (SD): 13.70 (17.64)
Week 4, omalizumab-naïve
  Non-responder n (%), AAS7 = 0: 17 (48.6) n (%)
  OR (95% CI) for rilzabrutinib vs. placebo, AAS7 = 0: 1.361
  RRD (%) for rilzabrutinib vs. placebo (95% CI), AAS7 = 0: 7.4 %
  Responder n (%), AAS7 = 0: 18 (51.4) n (%)
  AAS7 % Change difference for rilzabrutinib vs. placebo LS Mean (95% CI): −28.19 (−67.14, 10.77) %
  AAS7 % Change from baseline LS Mean (SE): −58.12 (14.75) %
  AAS7 = 0, Non-responder n (%): 15 (57.7) n (%)
